The values that follow come from ChEMBL document CHEMBL1142471, “Antioxidant capacity of human blood plasma and human urine: simultaneous evaluation of the ORAC index and ascorbic acid concentration employing pyrogallol red as probe” (Bioorg Med Chem, 2008).

Common to all, as to format: functional
Test [1] is described as follows: Antioxidant activity assessed as oxygen radical absorbance capacity index value at 5 uM by pyrogallol red protection assay.
Test [2] can be described thus: Antioxidant activity assessed as oxygen radical absorbance capacity index value by fluorescein protection assay.
Test [3] in a line: Antioxidant activity assessed as oxygen radical absorbance capacity index value by pyrogallol red protection assay.

For `O=C1O[C@H]([C@@H](O)CO)C(O)=C1O`, the Activity in test [1] stood at 9.7; in test [2], 0.95.

As to `Oc1nc(O)c2nc(O)[nH]c2n1`, the Activity was found to be 0.02 in test [3] and 0.72 in test [2].

Regarding `N[C@@H](CCC(=O)N[C@@H](CS)C(=O)NCC(=O)O)C(=O)O`, the Activity in test [2] is 0.62.
